Each structure is given as a SMILES string. Some results are limits rather than exact numbers.

This assay has as its target T1, ERα protein (HiBiT-tagged) in ESR1_HiBiT KI MCF7 cells (Homo sapiens, UniProt P03372).
T1 sequence (P03372 1-595): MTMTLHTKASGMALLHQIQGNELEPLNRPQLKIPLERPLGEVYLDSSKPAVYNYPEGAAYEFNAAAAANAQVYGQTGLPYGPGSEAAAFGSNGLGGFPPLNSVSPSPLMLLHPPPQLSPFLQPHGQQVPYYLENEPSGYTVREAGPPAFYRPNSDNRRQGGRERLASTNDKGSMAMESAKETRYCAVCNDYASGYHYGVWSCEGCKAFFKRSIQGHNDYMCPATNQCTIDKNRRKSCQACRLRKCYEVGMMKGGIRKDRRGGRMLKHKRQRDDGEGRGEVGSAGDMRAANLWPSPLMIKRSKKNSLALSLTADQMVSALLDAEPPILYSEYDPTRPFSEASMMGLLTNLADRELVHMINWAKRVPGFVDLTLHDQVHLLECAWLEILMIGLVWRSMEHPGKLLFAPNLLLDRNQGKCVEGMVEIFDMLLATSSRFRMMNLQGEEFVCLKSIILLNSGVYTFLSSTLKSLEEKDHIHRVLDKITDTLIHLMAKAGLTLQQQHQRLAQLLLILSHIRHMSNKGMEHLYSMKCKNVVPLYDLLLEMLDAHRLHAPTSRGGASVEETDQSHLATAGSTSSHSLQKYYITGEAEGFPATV
The assay can be described thus: Nano Glo HiBiT Lytic Degradation Assay. Type of assay: cell-based. As to conditions: 6 hours with compound, 14-point dose response 1:3, bell-shape curve fit, half-maximal effect of first Hill model, read-out: MCF7 ESR1 HiBiT - (DC50). The method, boiled down:
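ESR1_HiBiT knock-in MCF7 cells were seeded 24 h before treatment, then exposed to compounds for 6 h at 37° C (14-point 1:3 curves, 10 mM top stock, 0.1% DMSO final, duplicates). HiBiT-ERα was read by lytic LgBiT luminescence, background-subtracted and normalized to DMSO. DC50 was taken from the half-maximal point of the first Hill component of a bell-shaped fit.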
On the technique in general: With HiBiT, luminescence reflects the tagged protein that the partner subunit can reach.
Usually DC50 stands for the concentration at which degradation of the target reaches its halfway point. Turning to `Cc1cc(N2CCC3(CCN(CC4CCN(c5ccc([C@@H]6c7ccc(O)cc7C(F)(F)C[C@@H]6c6ccccc6)cc5)CC4)C3)CC2)ccc1N1CCC(=O)NC1=O` (single isomer, unassigned) [Compound I-294], the DC50 stood at 0.28 nM.
With `O=C1CC[C@H](N2Cc3cc(N4CCN(CC5CCN(c6ccc([C@@H]7c8ccc(O)cc8CC[C@@H]7c7ccc(F)cc7)cc6)CC5)CC4)ccc3C2=O)C(=O)N1` [II-94] the figure was 0.64 nM; with `O=C1CC[C@H](N2Cc3cc(N4CCN(CC5CCN(c6ccc([C@H]7c8ccc(O)cc8C(F)(F)C[C@H]7c7ccccc7)cn6)CC5)CC4)ccc3C2=O)C(=O)N1` [Compound I-338, (3S)-3-[5-[4-[[1-[5-[(1R,2R)-4,4-difluoro-6-hydroxy-2-phenyl-tetralin-1-yl]-2-pyridyl]-4-piperidyl]methyl]piperazin-1-yl]-1-oxo-isoindolin-2-yl]piperidine-2,6-dione], 10 nM.
With `O=C1CC[C@H](N2Cc3cc(N4CCN(CC5CCN(c6ccc([C@H]7c8ccc(O)cc8CO[C@H]7c7ccccc7)cc6F)CC5)CC4)ccc3C2=O)C(=O)N1` (single isomer, unassigned) [Compound I-382] the figure was 2 nM.
Consider `O=C1CC[C@H](N2Cc3cc(N4CCN(CC5CCN(c6ccc([C@@H]7c8ccc(O)cc8CO[C@H]7C7CCCCC7)cc6)CC5)CC4)ccc3C2=O)C(=O)N1` [Compound I-249, (S)-3-(5-(4-((1-(4-((3S,4R)-3-cyclohexyl-7-hydroxyisochroman-4-yl)phenyl)piperidin-4-yl)methyl)piperazin-1-yl)-1-oxoisoindolin-2-yl)piperidine-2,6-dione], for which the DC50 turned out to be 0.61 nM.
Then `O=C1CC[C@H](N2Cc3cc(N4CCN(CC5CCN(c6ccc([C@H]7c8ccc(O)cc8CC[C@H]7c7cccc(F)c7)cc6)CC5)CC4)ccc3C2=O)C(=O)N1` (single isomer, unassigned) [II-27], with 0.82 nM; and `Cc1ccccc1[C@@H]1CCc2cc(O)ccc2[C@@H]1c1ccc(N2CCC(CN3CCN(c4ccc5c(c4)CN([C@H]4CCC(=O)NC4=O)C5=O)CC3)CC2)cc1` (single isomer, unassigned) [II-35], with 0.34 nM.
Then `Cn1nc([C@@H]2CCC(=O)NC2=O)c2ccc(N3CCN(CC4CCN(c5ccc([C@@H]6c7ccc(O)cc7CO[C@@H]6c6ccccc6)cc5)CC4)CC3)cc21` (single isomer, unassigned) [Compound I-395], with 0.28 nM; and `O=C1CCC(N2Cc3cc(N4CCC(CN5CCC(c6ccc([C@H]7c8ccc(O)cc8CC[C@H]7c7ccccc7)cc6)CC5)CC4)ccc3C2=O)C(=O)N1` (single isomer, unassigned) [II-61], with 0.08 nM.
Then `O=C1CC[C@H](N2Cc3cc(N4CCN(CC5CCN(c6ccc([C@@H]7c8ccc(O)cc8CO[C@@H]7c7ccc(F)cc7)cc6)CC5)CC4)ccc3C2=O)C(=O)N1` [Compound I-35, (S)-3-(5-(4-((1-(4-((3S,4R)-3-(4-fluorophenyl)-7-hydroxyisochroman-4-yl)phenyl)piperidin-4-yl)methyl)piperazin-1-yl)-1-oxoisoindolin-2-yl)piperidine-2,6-dione], with 0.3 nM.
In the case of `Cn1ccc([C@@H]2CCc3cc(O)ccc3[C@@H]2c2ccc(N3CCC(CN4CCN(c5ccc6c(c5)CN([C@H]5CCC(=O)NC5=O)C6=O)CC4)CC3)cc2)n1` [Compound I-31], the DC50 is no less than 10000 nM.
Then `Cc1cc(N2CCC3(CCN(CC4CCN(c5ccc([C@@H]6c7ccc(O)cc7CO[C@@H]6c6ccccc6)cc5)CC4)C3)CC2)ccc1N1CCC(=O)NC1=O` [Compound I-392, 1-(4-(2-((1-(4-((3S,4R)-7-hydroxy-3-phenylisochroman-4-yl)phenyl)piperidin-4-yl)methyl)-2,8-diazaspiro[4.5]decan-8-yl)-2-methylphenyl)dihydropyrimidine-2,4 (1H,3H)-dione], with 0.13 nM.
With `Cc1ccc([C@H]2CC(F)(F)c3cc(O)ccc3[C@H]2c2ccc(N3CCC(CN4CCN(c5ccc6c(c5)CN([C@H]5CCC(=O)NC5=O)C6=O)CC4)CC3)cc2)cc1` (single isomer, unassigned) [Compound I-320, (S)-3-(5-(4-((1-(4-((1*S, 2*R)-4,4-difluoro-6-hydroxy-2-(p-tolyl)-1,2,3,4-tetrahydronaphthalen-1-yl)phenyl)piperidin-4-yl)methyl)piperazin-1-yl)-1-oxoisoindolin-2-yl)piperidine-2,6-dione] the figure was 0.006 nM.
Then `C[C@H]1CN(c2ccc3c(c2)CN([C@H]2CCC(=O)NC2=O)C3=O)CCN1CC1CCN(c2ccc([C@@H]3c4ccc(O)cc4CC[C@@H]3c3ccccc3)cc2)CC1` (single isomer, unassigned) [II-1], with 2 nM; and `CC(C)[C@@H]1OCc2cc(O)ccc2[C@@H]1c1ccc(N2CCC(CN3CCN(c4ccc5c(c4)CN([C@H]4CCC(=O)NC4=O)C5=O)CC3)CC2)cc1` (single isomer, unassigned) [Compound I-226], with 59 nM.
Consider `O=C1CC[C@H](N2Cc3cc(N4CCN(CC5CCN(c6ccc([C@H]7c8ccc(O)cc8CO[C@H]7c7ccc(O)cc7)cc6)CC5)CC4)ccc3C2=O)C(=O)N1` (single isomer, unassigned) [Compound I-360], for which the DC50 came out at 0.38 nM.
With `Cn1nc(C2CCC(=O)NC2=O)c2ccc(N3CCN(CC4CCN(c5ccc([C@@H]6c7ccc(O)cc7CO[C@@H]6c6ccccc6)cc5)CC4)CC3)cc21` (stereo partly drawn) [Compound I-393, 3-[6-[4-[[1-[4-[(3S,4R)-7-hydroxy-3-phenyl-isochroman-4-yl]phenyl]-4-piperidyl]methyl]piperazin-1-yl]-1-methyl-indazol-3-yl]piperidine-2,6-dione], the DC50 came to 0.36 nM.
For `O=C1CC[C@H](N2Cc3cc(N4CCN(CC5CCN(c6ccc([C@H]7c8ccc(O)cc8CO[C@@H]7c7ccc(O)cc7)cc6)CC5)CC4)ccc3C2=O)C(=O)N1` (single isomer, unassigned) [Compound I-359, (S)-3-(5-(4-((1-(4-((3R*,4R*)-7-hydroxy-3-(4-hydroxyphenyl)isochroman-4-yl)phenyl)piperidin-4-yl)methyl)piperazin-1-yl)-1-oxoisoindolin-2-yl)piperidine-2,6-dione], the DC50 came to 0.16 nM.
With `NC(=O)CCC(C(=O)O)N1Cc2cc(N3CCN(CC4CCN(c5ccc([C@@H]6c7ccc(O)cc7CO[C@@H]6c6ccccc6)cc5)CC4)CC3)ccc2C1=O` (stereo partly drawn) [Compound I-400] the figure was 7.75 nM; with `O=C1CC(N2Cc3cc(N4CCN(CC5CCN(c6ccc([C@@H]7c8ccc(O)cc8CC[C@@H]7c7ccccc7)cc6)CC5)CC4)ccc3C2=O)C(=O)N1` (stereo partly drawn) [Compound I-274, 3-(5-(4-((1-(4-((1R,2S)-6-hydroxy-2-phenyl-1,2,3,4-tetrahydronaphthalen-1-yl)phenyl)piperidin-4-yl)methyl)piperazin-1-yl)-1-oxoisoindolin-2-yl) pyrrolidine-2,5-dione], 1 nM.
With `O=C1CC[C@H](N2Cc3cc(N4CCN(CC5CCN(c6ccc([C@@H]7c8ccc(O)cc8CC[C@@H]7c7ccccc7F)cc6)CC5)CC4)ccc3C2=O)C(=O)N1` (single isomer, unassigned) [II-24] the figure was 245 nM.

Source of the values: US20250388565A1, “ESTROGEN RECEPTOR ALPHA DEGRADERS AND METHODS OF USE THEREOF” (Relay Therapeutics, Inc., priority 2022, published 2025).
